Data as given in article PMC4804240, “Crystal structure of the vicilin from Solanum melongena reveals existence of different anionic ligands in structurally similar pockets” (Scientific Reports, 2016).
Values belong to the compound of their own block, whether it stands above or below them.

How the values were obtained:
[1] = biological target: SM80.1, 7S vicilin from Solanum melongena (eggplant) seeds (Solanum melongena); assay: crystal structure; R32 crystal form, 1.5 A; one monomer in the asymmetric unit, trimer formed around the threefold crystallographic axis; crystals grown in 10% (w/v) PEG 3350, 1.5 M-2 M sodium malonate, hanging drop, 25°C
SM80.1 = biological target: T1, SM80.1 (Solanum virginianum, UniProt A0A158RFR1); assay: X-ray crystal structure, […] Å; type: binding; details: crystals from PEG 3350, sodium malonate, 25°C
T1 construct: native protein from seeds (ammonium sulphate fraction, gel filtration); 45 kDa band; homotrimer; 392 residues in structure
T1 sequence (A0A158RFR1 1-392): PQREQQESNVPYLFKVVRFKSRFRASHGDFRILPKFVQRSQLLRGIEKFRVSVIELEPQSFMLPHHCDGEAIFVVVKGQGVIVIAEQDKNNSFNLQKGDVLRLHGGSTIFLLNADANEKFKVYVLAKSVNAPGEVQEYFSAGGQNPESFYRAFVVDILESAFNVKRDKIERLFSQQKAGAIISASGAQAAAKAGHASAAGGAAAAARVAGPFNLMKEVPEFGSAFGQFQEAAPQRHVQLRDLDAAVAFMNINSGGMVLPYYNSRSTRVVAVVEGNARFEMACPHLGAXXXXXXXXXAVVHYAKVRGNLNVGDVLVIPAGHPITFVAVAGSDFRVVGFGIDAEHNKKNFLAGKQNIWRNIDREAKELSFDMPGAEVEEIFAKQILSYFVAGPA

stoichiometry N [1]: 3
Compound: SM80.1, 7S vicilin from Solanum melongena (eggplant) seeds (natural protein)

Compound: O=C1CC[C@@H](C(=O)O)N1 [PCA, pyroglutamate]
X-ray crystal structure, 1.5 Å (SM80.1; co-purified endogenous ligand, N-terminal beta-barrel pocket (His65, Cys67)): The N-terminal domain has cyclic lactam of glutamate, called pyroglutamate.

Compound: CC(=O)O [ACT, acetate]
X-ray crystal structure, 1.5 Å (SM80.1; bound without being listed in crystallisation mix, C-terminal beta-barrel pocket (Tyr260, Asn262, Arg267, Lys346)): Acetate moiety was present in the corresponding pocket in the C-terminal domain
